Measurements taken from patent US12679812B2, “18F-labeled triazole containing PSMA inhibitors” (Cornell University, priority 2016, dated 2026).
Where two headings read alike, the source gives them in different places. Marks after values point to notes of the source that are not given here. Values belong to the compound of their own block, whether it stands above or below them.

Assays:
LNCaP tumor [1] = details: literature value, cited from earlier work
PSMA on LNCaP cells = molecular target: T1, PSMA on LNCaP cells (Homo sapiens, UniProt Q04609); assay: Competitive binding assay against 99mTc-MIP-1427 for binding to PSMA on LNCaP cells; details: non-radioactive fluorine-containing ligands, 1 nM 99mTc-MIP-1427, 1 hour
T1 construct: host or cells: LNCaP
Experimental: Cell Culture. The human prostate cancer cell line, LNCaP, was obtained from the American Type Culture Collection. Cell culture supplies were from Invitrogen unless otherwise noted. LNCaP cells were maintained in RPMI-1640 medium supplemented with 10% fetal bovine serum (Hyclone), 4 mM L-glutamine, 1 mM sodium pyruvate, 10 mM N-2-hydroxyethylpiperazine-N-2-ethanesulfonic acid (HEPES), 2.5 mg/mL D-glucose, and 50 μg/mL gentamicin in a humidified incubator at 37° C./5% C02. Cells were removed from flasks for passage or for transfer to 12-well assay plates by incubating them with 0.25% trypsin/ethylenediaminetetraacetic acid (EDTA).
In vitro determination of IC50. IC50 values of the non-radioactive fluorine-containing ligands were determined by screening in a multi-concentration competitive binding assay against ^99mTc-((7S,12S,16S)-1-(1-(carboxymethyl)-1H-imidazol-2-yl)-2-((1-(carboxymethyl)-1H-imidazol-2-yl)methyl)-9,14-dioxo-2,8,13,15-tetraazaoctadecane-7,12,16,18-tetracarboxylic acid technetium tricarbonyl complex) (^99mTc-MIP-1427) for binding to PSMA on LNCaP cells, according to methods previously described. See Hillier S M, Maresca K P, Lu G, Merkin R D, Marquis J C, Zimmerman C N, Eckelman W C, Joyal J L, Babich J W. 99mTc-Labeled Small-Molecule Inhibitors of Prostate-Specific Membrane Antigen for Molecular Imaging of Prostate Cancer. J. Nucl. Med. 2013, 54, 1369-1376, incorporated herein by reference. The LNCaP cells were plated 48 hours prior to the experiment to achieve a density of approximately 5×10^5 cells/well (in triplicate) in RPMI-1640 medium supplemented with 0.25% bovine serum albumin prior to performing the assay. LNCaP cells were incubated for 1 hour with 1 nM ^99mTc-MIP-1427 in serum free RPMI-1640 medium in the presence of 1-10,000 nM test compounds. Radioactive incubation media was then removed by pipette and the cells were washed twice using 1 mL ice-cold HEPES buffer. Cells were harvested from the plates and transferred to tubes for radioactive counting using a Packard Cobra II Gamma Counter. IC50 values were determined by non-linear regression using GraphPad Prism software.

LNCaP xenograft tumor [2] = assay: microPET/CT imaging of LNCaP xenograft tumor-bearing mice; assay type: in vivo; details: for Max. LNCaP Tumor Uptake: image derived calculation of tumor uptake (microPET/CT), at time of maximum uptake
Experimental: (§1) Inoculation of mice with xenografts. All animal studies were approved by the Institutional Animal Care and Use Committee of Weill Cornell Medicine and were undertaken in accordance with the guidelines set forth by the USPHS Policy on Humane Care and Use of Laboratory Animals. Animals were housed under standard conditions in approved facilities with 12 h light/dark cycles. Food and water was provided ad libitum throughout the course of the studies. Male inbred athymic nu/nu mice were purchased from The Jackson Laboratory. For inoculation in mice, LNCaP cells were suspended at 4×10^7 cells/mL in a 1:1 mixture of PBS:Matrigel (BD Biosciences). Each mouse was injected in the left flank with 0.25 mL of the cell suspension. The mice were imaged when the tumors reached approximately 200-400 mm^3, while biodistributions were conducted when tumors were in the range 100-400 mm^3.
Imaging. […] Specific activity was greater than […]. The mice were imaged by pPET/CT (Inveon™; Siemens Medical Solutions, Inc.) at 1 h, 2 h, 4 h, and 6 h post-injection ([^18F]fluorinated compounds) or 1 h and 3 h post-injection ([^68Ga]Ga-PSMA-HBED-CC). Total acquisition time was thirty minutes, and a CT scan was obtained either immediately before or immediately after the acquisition for both anatomical co-registration and attenuation correction. The data were reconstructed using the commercial Inveon™ software supplied by the vendor. Tumor uptake was estimated by drawing a region of interest (ROI).

PSMA = molecular target: T2, PSMA (Homo sapiens, UniProt Q04609); details: for PSMA, competitive binding assay using LNCaP cells, literature value, cited from earlier work
T2 construct: host or cells: LNCaP

LNCaP tumor [3] = details: reported study, cited from earlier work; for Tumor uptake (Max. LNCaP Tumor Uptake): 3 h post injection
LNCaP xenograft tumor [4] = assay: Ex vivo biodistribution in LNCaP xenograft tumor-bearing mice; details: for Tumor uptake / Max. LNCaP Tumor Uptake: n=5; for Max. LNCaP Tumor Uptake: biodistribution
Experimental: as §1
Biodistribution. LNCaP xenograft tumor-bearing mice (n=5 per time point) were injected via the tail vein with a bolus injection of 370 kBq (10 μCi) of either [^18F]RPS-040 or [^18F]RPS-041. The specific activity of the compounds was […], respectively. The mice were euthanized by asphyxiation under isofluorane at 1 h, 2 h and 4 h post injection. An additional set of mice (n=5) was co-administered [^18F]RPS-040 (370 kBq; 10 μCi) and 2-PMPA (approx. 250 μg; 10 mg/kg) and sacrificed at 1 h post injection to determine the uptake specificity. A full biodistribution study was conducted on all mice, and tissues were excised, weighed and counted in an automated γ-counter. Tissue time-activity values were expressed as percentage injected dose per gram of tissue (% ID/g). Statistical comparisons were performed using the standard Student's t-test for a 95% confidence interval.

[5] = listed as [^68Ga]Ga-PSMA-HBED-CC
[6] = 1 h post injection, co-administered with 2-PMPA (blocked)

T1 sequence (Q04609 whole entry): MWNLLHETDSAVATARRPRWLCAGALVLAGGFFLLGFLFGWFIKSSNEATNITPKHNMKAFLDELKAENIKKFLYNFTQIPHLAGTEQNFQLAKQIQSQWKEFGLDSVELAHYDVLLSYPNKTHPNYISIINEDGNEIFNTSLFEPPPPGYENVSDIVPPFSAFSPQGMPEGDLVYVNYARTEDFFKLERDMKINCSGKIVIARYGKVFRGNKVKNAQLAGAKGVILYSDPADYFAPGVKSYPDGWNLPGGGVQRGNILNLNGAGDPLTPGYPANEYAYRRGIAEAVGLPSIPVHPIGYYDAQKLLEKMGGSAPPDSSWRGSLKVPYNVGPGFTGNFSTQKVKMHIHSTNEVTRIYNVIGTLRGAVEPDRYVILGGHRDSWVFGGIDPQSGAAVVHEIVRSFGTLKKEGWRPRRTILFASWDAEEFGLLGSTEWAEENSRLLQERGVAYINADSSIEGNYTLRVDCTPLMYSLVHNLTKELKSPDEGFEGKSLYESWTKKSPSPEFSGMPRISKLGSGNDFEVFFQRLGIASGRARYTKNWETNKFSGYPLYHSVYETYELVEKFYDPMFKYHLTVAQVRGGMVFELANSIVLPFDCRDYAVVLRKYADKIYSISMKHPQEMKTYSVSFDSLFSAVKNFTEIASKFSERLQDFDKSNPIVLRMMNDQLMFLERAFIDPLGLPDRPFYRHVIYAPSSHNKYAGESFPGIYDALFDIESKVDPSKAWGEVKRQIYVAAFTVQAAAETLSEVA
T2 sequence (Q04609 whole entry): as above

IC50 (PSMA on LNCaP cells): 0.3 nM
SMILES: O=C(O)CC[C@H](NC(=O)N[C@@H](CCCCNC(=O)Nc1ccc(I)cc1)C(=O)O)C(=O)O [MIP-1095]
Max. LNCaP Tumor Uptake (LNCaP tumor [1]; 4 h p.i.): 34.3 ± 12.7^a % ID/g
Time p.i. of max. LNCaP tumor uptake (LNCaP tumor [1]): 4 h

IC50 (PSMA on LNCaP cells): 36.5 nM
Max. LNCaP Tumor Uptake (LNCaP xenograft tumor [2]): 9.04 ± 1.88^c % ID/g
Time p.i. of max. LNCaP tumor uptake (LNCaP xenograft tumor [2]; microPET/CT imaging at 1, 2, 4, 6 h): 2 h
SMILES: O=C(O)CC[C@H](NC(=O)N[C@@H](CCCCNC(=O)Nc1cccc(OCc2cn(CCF)nn2)c1)C(=O)O)C(=O)O [RPS-043, (((S)-1-Carboxy-5-(3-(3-((1-(2-fluoroethyl)-1H-1,2,3-triazol-4-yl)methoxy)phenyl)ureido)pentyl)carbamoyl)-L-glutamic acid]

SMILES: O=C([O-])CN(CCN(CC(=O)[O-])Cc1cc(CCC(=O)NCCCCCC(=O)NCCCC[C@H](NC(=O)N[C@@H](CCC(=O)O)C(=O)O)C(=O)O)ccc1[O-])Cc1cc(CCC(=O)O)ccc1[O-].[68Ga+3].[OH3+] [^68Ga-PSMA-HBED-CC]
IC50 (PSMA): 24.3 ± 2 nM
IC50 (PSMA; [5]): ~24 nM
Activity in the kidney (LNCaP tumor [3]; 1 h): 314.44±90.61 % ID/g
Activity in the spleen (LNCaP tumor [3]; 1 h): 31.73±14.09 % ID/g
Tumor uptake (LNCaP tumor [3]; 1 h post injection): 5.81±1.67 % ID/g
Activity in the kidney (LNCaP tumor [3]; 3 h): 207.97±58.38 % ID/g
Activity in the spleen (LNCaP tumor [3]; 3 h): 13.85±3.53 % ID/g
Tumor uptake (Max. LNCaP Tumor Uptake) (LNCaP tumor [3]): 6.27 ± 1.44 % ID/g
Tumor uptake (Max. LNCaP Tumor Uptake) (LNCaP tumor [3]; [5]): 6.27±1.44 % ID/g
Time p.i. of max. LNCaP tumor uptake (LNCaP tumor [3]; 1 h and 3 h): 3 h
Uptake in the liver or intestine (LNCaP xenograft tumor [2]; microPET/CT, 1 h post injection): No uptake

Tumor-to-blood ratio (LNCaP xenograft tumor [4]; 1 h post injection): 28.8±8.06
Tumor-to-blood ratio relative to [68Ga]Ga-PSMA-HBED-CC (LNCaP xenograft tumor [4]; 1 h post injection): three-fold greater
Tumor-to-kidney ratio (contrast) relative to [68Ga]Ga-PSMA-HBED-CC (LNCaP xenograft tumor [4]; 1 h post injection): ten
Uptake in the kidneys (LNCaP xenograft tumor [4]; [6]): 5.95±1.65 % ID/g
Uptake in the spleen (LNCaP xenograft tumor [4]; [6]): 0.32±0.05 % ID/g
Tumor uptake (LNCaP xenograft tumor [4]; [6]): 1.75±0.15 % ID/g
Uptake in the kidneys (LNCaP xenograft tumor [4]; 1 h post injection, unblocked): 74.24±10.71 % ID/g
Uptake in the spleen (LNCaP xenograft tumor [4]; 1 h post injection, unblocked): 4.97±1.55 % ID/g
Tumor uptake (LNCaP xenograft tumor [4]; 1 h post injection, unblocked): 12.69±1.56 % ID/g
Uptake in the kidneys (LNCaP xenograft tumor [4]; 2 h post injection): 60.94±8.06 % ID/g
Uptake in the liver (LNCaP xenograft tumor [4]; 2 h post injection): 4.72±0.93 % ID/g
Uptake in the spleen (LNCaP xenograft tumor [4]; 2 h post injection): 3.23±1.26 % ID/g
Tumor-to-blood ratio (LNCaP xenograft tumor [4]; 4 h post injection): 92.93±75.67
Tumor uptake relative to [68Ga]Ga-PSMA-HBED-CC (LNCaP xenograft tumor [4]; at the time of maximum tumor uptake): more than two-fold greater
Time p.i. of max. LNCaP tumor uptake (LNCaP xenograft tumor [4]; biodistribution at 1, 2, 4 h): 2 h
Max. LNCaP Tumor Uptake (LNCaP xenograft tumor [4]; 2 h post injection): 14.30 ± 2.49^ % ID/g
Max. LNCaP Tumor Uptake (LNCaP xenograft tumor [4]; 2 h post injection, listed as [^18F]RPS-040): 14.30±2.49 % ID/g
IC50 (PSMA on LNCaP cells): 7 nM
Max. LNCaP Tumor Uptake (LNCaP xenograft tumor [2]): 14.30 % ID/g
SMILES: O=C(O)CC[C@H](NC(=O)N[C@@H](CCCCNC(=O)Nc1cccc(-c2cn(CCF)nn2)c1)C(=O)O)C(=O)O [RPS-040, (((S)-1-Carboxy-5-(3-(3-(1-(2-fluoroethyl)-1H-1,2,3-triazol-4-yl)phenyl)ureido)pentyl)carbamoyl)-L-glutamic acid]
